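Following 48 hours of exposure in 96-well plates, responses at five concentrations were used to interpolate endpoints linearly. TGI: concentration producing complete growth inhibition.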

One assay relates to NCI-H460 lung. The experiment in a line: NCI anticancer screen, dose series, 48 h.
Turning to `CC(=O)OCC(C)C1=C(O)C(=O)C2(C)C/C=C(/C)CC/C=C(\C)CCC(O)C(C)CCC12` (stereo not drawn), the TGI stood at 32 µM.

On to `CC(C)OP(=O)(OC(C)C)c1c(Nc2ccccc2)n[nH]c1N`, for which the TGI is greater than 100 µM.

On to `CC(C)(C)C1=C(Br)C(Br)(C(C)(C)C)OP1(=O)c1ccccc1` (stereo not drawn), for which the TGI was greater than 100 µM.

`CC1(C)OCC(COC(=O)C=[N+]=[N-])O1` (stereo not drawn): the TGI was greater than 100 µM.

The subject of another assay is UO-31 renal. Nature of the assay: NCI anticancer screen, dose series, 48 h.
Take `CC(=O)OCC(C)C1=C(O)C(=O)C2(C)C/C=C(/C)CC/C=C(\C)CCC(O)C(C)CCC12` (stereo not drawn): the TGI is 27.2 µM.

`CC(C)OP(=O)(OC(C)C)c1c(Nc2ccccc2)n[nH]c1N` displayed a TGI greater than 100 µM.

For `CC(C)(C)C1=C(Br)C(Br)(C(C)(C)C)OP1(=O)c1ccccc1` (stereo not drawn), the TGI is greater than 100 µM.

`CC1(C)OCC(COC(=O)C=[N+]=[N-])O1` (stereo not drawn) gave a TGI greater than 100 µM.

In a further assay the test system is SR leukemia. The experiment in a line: NCI anticancer screen, dose series, 48 h.
Compound `CC(=O)OCC(C)C1=C(O)C(=O)C2(C)C/C=C(/C)CC/C=C(\C)CCC(O)C(C)CCC12` (stereo not drawn) came in with a TGI of 34.9 µM.

Regarding `CC(C)OP(=O)(OC(C)C)c1c(Nc2ccccc2)n[nH]c1N`, the TGI is greater than 100 µM.

On to `CC(C)(C)C1=C(Br)C(Br)(C(C)(C)C)OP1(=O)c1ccccc1` (stereo not drawn), for which the TGI is greater than 100 µM.

`CC1(C)OCC(COC(=O)C=[N+]=[N-])O1` (stereo not drawn) displayed a TGI greater than 100 µM.

Another assay relates to SF-295 CNS. The experiment in a line: NCI anticancer screen, dose series, 48 h.
Turning to `CC(=O)OCC(C)C1=C(O)C(=O)C2(C)C/C=C(/C)CC/C=C(\C)CCC(O)C(C)CCC12` (stereo not drawn), the TGI stood at 29.9 µM.

Consider `CC(C)OP(=O)(OC(C)C)c1c(Nc2ccccc2)n[nH]c1N`, for which the TGI is greater than 100 µM.

Take `CC(C)(C)C1=C(Br)C(Br)(C(C)(C)C)OP1(=O)c1ccccc1` (stereo not drawn): the TGI is greater than 100 µM.

Regarding `CC1(C)OCC(COC(=O)C=[N+]=[N-])O1` (stereo not drawn), the TGI is greater than 100 µM.

A further assay concerns SK-MEL-28 melanoma. Nature of the assay: NCI anticancer screen, dose series, 48 h.
In turn, `CC(=O)OCC(C)C1=C(O)C(=O)C2(C)C/C=C(/C)CC/C=C(\C)CCC(O)C(C)CCC12` (stereo not drawn) displayed a TGI of 31.7 µM.

`CC(C)OP(=O)(OC(C)C)c1c(Nc2ccccc2)n[nH]c1N` showed a TGI greater than 100 µM.

The compound `CC(C)(C)C1=C(Br)C(Br)(C(C)(C)C)OP1(=O)c1ccccc1` (stereo not drawn) gave a TGI greater than 100 µM.

`CC1(C)OCC(COC(=O)C=[N+]=[N-])O1` (stereo not drawn) gave a TGI greater than 100 µM.

The subject of the next assay is MALME-3M melanoma. Nature of the assay: NCI anticancer screen, dose series, 48 h.
For `CC(=O)OCC(C)C1=C(O)C(=O)C2(C)C/C=C(/C)CC/C=C(\C)CCC(O)C(C)CCC12` (stereo not drawn), the TGI is 31.8 µM.

Consider `CC(C)OP(=O)(OC(C)C)c1c(Nc2ccccc2)n[nH]c1N`, for which the TGI is greater than 100 µM.

On to `CC(C)(C)C1=C(Br)C(Br)(C(C)(C)C)OP1(=O)c1ccccc1` (stereo not drawn), for which the TGI is greater than 100 µM.

The compound `CC1(C)OCC(COC(=O)C=[N+]=[N-])O1` (stereo not drawn) yielded a TGI greater than 100 µM.

The next assay concerns HS 578T breast. Nature of the assay: NCI anticancer screen, dose series, 48 h.
`CC(=O)OCC(C)C1=C(O)C(=O)C2(C)C/C=C(/C)CC/C=C(\C)CCC(O)C(C)CCC12` (stereo not drawn) yielded a TGI of 52.9 µM.

Compound `CC(C)OP(=O)(OC(C)C)c1c(Nc2ccccc2)n[nH]c1N` gave a TGI greater than 100 µM.

`CC(C)(C)C1=C(Br)C(Br)(C(C)(C)C)OP1(=O)c1ccccc1` (stereo not drawn) returned a TGI greater than 100 µM.

A further assay relates to OVCAR-4 ovarian. The experiment in a line: NCI anticancer screen, dose series, 48 h.
On to `CC(=O)OCC(C)C1=C(O)C(=O)C2(C)C/C=C(/C)CC/C=C(\C)CCC(O)C(C)CCC12` (stereo not drawn), for which the TGI worked out at 37 µM.

For the compound `CC(C)OP(=O)(OC(C)C)c1c(Nc2ccccc2)n[nH]c1N`, the TGI was greater than 100 µM.

On to `CC(C)(C)C1=C(Br)C(Br)(C(C)(C)C)OP1(=O)c1ccccc1` (stereo not drawn), for which the TGI was greater than 100 µM.

In turn, `CC1(C)OCC(COC(=O)C=[N+]=[N-])O1` (stereo not drawn) had a TGI greater than 100 µM.

The subject of another assay is NCI-H522 lung. The experiment in a line: NCI anticancer screen, dose series, 48 h.
`CC(=O)OCC(C)C1=C(O)C(=O)C2(C)C/C=C(/C)CC/C=C(\C)CCC(O)C(C)CCC12` (stereo not drawn) came in with a TGI of 32.6 µM.

For `CC(C)OP(=O)(OC(C)C)c1c(Nc2ccccc2)n[nH]c1N`, the TGI was greater than 100 µM.

Compound `CC(C)(C)C1=C(Br)C(Br)(C(C)(C)C)OP1(=O)c1ccccc1` (stereo not drawn) had a TGI greater than 100 µM.

The compound `CC1(C)OCC(COC(=O)C=[N+]=[N-])O1` (stereo not drawn) registered a TGI greater than 100 µM.

The next assay concerns TK-10 renal. The experiment in a line: NCI anticancer screen, dose series, 48 h.
`CC(=O)OCC(C)C1=C(O)C(=O)C2(C)C/C=C(/C)CC/C=C(\C)CCC(O)C(C)CCC12` (stereo not drawn) showed a TGI of 35.9 µM.

In the case of `CC(C)OP(=O)(OC(C)C)c1c(Nc2ccccc2)n[nH]c1N`, the TGI is greater than 100 µM.

Compound `CC(C)(C)C1=C(Br)C(Br)(C(C)(C)C)OP1(=O)c1ccccc1` (stereo not drawn) registered a TGI greater than 100 µM.

`CC1(C)OCC(COC(=O)C=[N+]=[N-])O1` (stereo not drawn) returned a TGI greater than 100 µM.

The next assay concerns HCC-2998 colon. The experiment in a line: NCI anticancer screen, dose series, 48 h.
As to `CC(C)OP(=O)(OC(C)C)c1c(Nc2ccccc2)n[nH]c1N`, the TGI is greater than 100 µM.

With `CC(C)(C)C1=C(Br)C(Br)(C(C)(C)C)OP1(=O)c1ccccc1` (stereo not drawn), the TGI was greater than 100 µM.

In the case of `CC1(C)OCC(COC(=O)C=[N+]=[N-])O1` (stereo not drawn), the TGI is greater than 100 µM.

The next assay concerns DU-145 prostate. The experiment in a line: NCI anticancer screen, dose series, 48 h.
For `CC(=O)OCC(C)C1=C(O)C(=O)C2(C)C/C=C(/C)CC/C=C(\C)CCC(O)C(C)CCC12` (stereo not drawn), the TGI stood at 31.7 µM.

Take `CC(C)OP(=O)(OC(C)C)c1c(Nc2ccccc2)n[nH]c1N`: the TGI is greater than 100 µM.

The compound `CC(C)(C)C1=C(Br)C(Br)(C(C)(C)C)OP1(=O)c1ccccc1` (stereo not drawn) had a TGI greater than 100 µM.

`CC1(C)OCC(COC(=O)C=[N+]=[N-])O1` (stereo not drawn): the TGI is greater than 100 µM.

The next assay relates to LOX IMVI melanoma. The experiment in a line: NCI anticancer screen, dose series, 48 h.
Regarding `CC(=O)OCC(C)C1=C(O)C(=O)C2(C)C/C=C(/C)CC/C=C(\C)CCC(O)C(C)CCC12` (stereo not drawn), the TGI came to 33.1 µM.

`CC(C)OP(=O)(OC(C)C)c1c(Nc2ccccc2)n[nH]c1N` yielded a TGI greater than 100 µM.

As to `CC(C)(C)C1=C(Br)C(Br)(C(C)(C)C)OP1(=O)c1ccccc1` (stereo not drawn), the TGI is greater than 100 µM.

As for `CC1(C)OCC(COC(=O)C=[N+]=[N-])O1` (stereo not drawn), the TGI was greater than 100 µM.

In another assay the test system is SNB-75 CNS. Nature of the assay: NCI anticancer screen, dose series, 48 h.
In the case of `CC(=O)OCC(C)C1=C(O)C(=O)C2(C)C/C=C(/C)CC/C=C(\C)CCC(O)C(C)CCC12` (stereo not drawn), the TGI is 30.5 µM.

Compound `CC(C)OP(=O)(OC(C)C)c1c(Nc2ccccc2)n[nH]c1N` returned a TGI greater than 100 µM.

As for `CC(C)(C)C1=C(Br)C(Br)(C(C)(C)C)OP1(=O)c1ccccc1` (stereo not drawn), the TGI is greater than 100 µM.

Source of the values: PubChem BioAssay (NCI).
